Laboratory results taken from patent US20250049968A1, “THERAPEUTIC AND IMAGING AGENTS FOR TARGETING MYOCARDIAL TISSUE” (The Board of Regents of the University of Oklahoma, priority 2023, published 2025).

What was measured:
[1] = clinical PK profile; cited from earlier work
[2] = system: MI hearts; assay: Whole-body PET imaging of ^18F-OM for detection of MI in mice; format: in vivo; conditions: for cardiac uptake in MI hearts compared to sham/normal hearts, PET: occluded left anterior descending coronary artery model
Protocol: Approximately 80 uCi of ^18F-OM was injected and images were acquired after 4 h. […] In another non-limiting embodiment of the present disclosure, the OM or OM-liposomes can be labeled with ^18F radionuclide for PET imaging of myocardial infarction as an infarct-avid radiotracer. Unlike radiotracers for perfusion imaging, infarct-avid agents are not taken up by normal myocardium and only accumulate at the site of acute infarct. Therefore, infarct radiotracers produce images with less background and improved signal-to-noise ratio. Currently, no infarct-avid radiotracer is available for clinical PET imaging of infarct tissue. […] After successful labeling, we investigated ^18F-OM for detection of MI in a mouse model of occluded anterior descending branch of the left coronary artery. After imaging, the mice were euthanized to collect various organs for counting of tissue-associated radioactivity.

[3] = approx. 80 uCi, images after 4 h, FIG. 6

Row | SMILES | mean apparent terminal elimination half-life (t1/2) [1] [h] | accumulation in sham hearts, PET ([2]; FIG. 7) | background signal from accumulation in liver and lung tissue ([2]; PET, mice) | detection of surgical MI, target/non-target ratio ([2]; PET, mice, FIG. 6) | accumulation in hearts of MI mice, whole-body PET [2, 3] | accumulation in normal hearts of control mice, whole-body PET [2, 3] | cardiac uptake in MI hearts compared to sham/normal hearts, PET ([2]; FIG. 7) | cardiac uptake in MI hearts compared to sham/normal hearts, PET ([2]; FIG. 7, listed as [18F]-OMA)
1 | COC(=O)N1CCN(Cc2cccc(NC(=O)Nc3ccc(C)nc3)c2F)CC1 [OM, omecamtiv mecarbil] | 18.5 |  |  |  |  |  |  | 
2 | COC(=O)N1CCN(Cc2cccc(NC(=O)Nc3ccc(C)nc3)c2OCCF)CC1 [^18F-OM, Methyl 4-(2-(2-fluoroethoxy)-3-(3-(6-methylpyridin-3-yl)ureido)benzyl)piperazine-1-carboxylate] |  | accumulated significant | lack of background signal | high target/non-target ratio | high accumulation | no visible accumulation | significantly more pronounced | distinctly high uptake
